Structures can show the parent of a compound that is named as a salt.
What was measured:
[1] = target: T1, wild-type c-Kit receptor protein endogenously expressed in H526 cells (Homo sapiens, UniProt P10721); experiment: Assay for inhibition of c-Kit in intact cells (cell-based ELISA of SCF-induced tyrosine phosphorylation); conditions: read-out: results in the assay above (IC50, inhibition of SCF-induced tyrosine phosphorylation of c-Kit)
T1 construct: wild-type c-Kit receptor protein that is endogenously expressed in H526 cells; host or cells: H526 human small cell lung cancer cells
Description: I. Assay for Inhibition of c-Kit in Intact Cells
The ability of compounds to inhibit the tyrosine kinase activity of c-Kit was determined in a cell-based ELISA assay using the H526 cell line (ATCC # CRL-5811), which was originally derived from a human small cell lung cancer. The assay determines the ability of compounds to block ligand-stimulated tyrosine phosphorylation of the wild-type c-Kit receptor protein that is endogenously expressed in H526 cells. Cells are pre-incubated with compounds at various concentrations prior to addition of stem cell factor (SCF), the ligand for the c-Kit receptor tyrosine kinase. […] The phosphotyrosine content of the receptor protein is then monitored by quantitation of the degree of binding of an antibody that recognizes only the phosphorylated tyrosine residues within the captured protein. The antibody used has a reporter enzyme (e.g. horseradish peroxidase, HRP) covalently attached, such that binding of antibody to phosphorylated c-Kit can be determined quantitatively by incubation with an appropriate HRP substrate. […]
Comparison of the assay signals obtained in the presence of compound with those of the positive and negative controls (cells incubated in the presence or absence of SCF, with no compound added), allows the degree of inhibition of c-Kit receptor tyrosine phosphorylation to be determined over a range of compound concentrations. […]

[2] = tested on: MO7e human leukemia cells; conditions: cited from earlier work
[3] = tested on: MO7e human leukemia cells; conditions: cited from earlier work; remark: listed apart in the source

T1 sequence (P10721 26-976): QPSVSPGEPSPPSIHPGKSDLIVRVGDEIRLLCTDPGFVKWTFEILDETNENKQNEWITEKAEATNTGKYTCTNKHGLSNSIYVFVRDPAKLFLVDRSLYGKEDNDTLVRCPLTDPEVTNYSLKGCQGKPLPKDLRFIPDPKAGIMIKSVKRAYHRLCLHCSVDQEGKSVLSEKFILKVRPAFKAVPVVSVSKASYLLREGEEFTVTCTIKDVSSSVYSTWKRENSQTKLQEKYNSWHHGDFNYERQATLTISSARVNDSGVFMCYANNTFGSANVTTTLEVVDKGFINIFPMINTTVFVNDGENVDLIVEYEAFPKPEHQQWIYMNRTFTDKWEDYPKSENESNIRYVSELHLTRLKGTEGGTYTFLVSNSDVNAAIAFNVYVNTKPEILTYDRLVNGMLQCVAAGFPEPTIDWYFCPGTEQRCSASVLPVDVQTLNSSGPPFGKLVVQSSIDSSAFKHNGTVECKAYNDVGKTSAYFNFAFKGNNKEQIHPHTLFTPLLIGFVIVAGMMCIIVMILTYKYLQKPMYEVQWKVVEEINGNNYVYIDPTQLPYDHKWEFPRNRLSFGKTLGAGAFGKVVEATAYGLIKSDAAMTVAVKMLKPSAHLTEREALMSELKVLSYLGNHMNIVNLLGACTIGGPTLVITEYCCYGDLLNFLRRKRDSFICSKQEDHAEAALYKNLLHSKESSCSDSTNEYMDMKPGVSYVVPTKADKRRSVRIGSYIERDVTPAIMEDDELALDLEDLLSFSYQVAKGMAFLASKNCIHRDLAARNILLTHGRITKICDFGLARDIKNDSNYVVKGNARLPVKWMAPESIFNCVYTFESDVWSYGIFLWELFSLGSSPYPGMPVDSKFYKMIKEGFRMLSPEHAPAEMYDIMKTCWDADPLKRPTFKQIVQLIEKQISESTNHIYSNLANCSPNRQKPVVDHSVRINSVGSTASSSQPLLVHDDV

Row | IC50 [1] [µM] | Structure (SMILES) | GM-CSF stimulated growth of MO7e human leukemia cells [2] | Kit ligand-stimulated growth of MO7e human leukemia cells ([3]; Kit ligand-stimulated) | apoptosis ([3]; under Kit ligand-stimulated conditions, MO7e cells)
1 | > 10 | O=C(NCc1cccnc1)c1ccc2c(c1)ncn2-c1cccc(NS(=O)(=O)c2cccc(Cl)c2)c1 [Compound Q5, 1-(3-{[(3-Chlorophenyl)sulfonyl]amino}phenyl)-N-pyridin-3-ylmethyl-1H-benzimidazole-5-carboxamide] |  |  | 
2 | > 10 | O=C(NCc1cccnc1)c1ccc2c(c1)ncn2-c1ccc(OCCOc2ncc(C(F)(F)F)cc2Cl)cc1 [Compound H13, N-Pyridin-3-ylmethyl-1-{4-[2-(3-chloro-5-trifluoromethylpyridin-2-yloxy)ethoxy]phenyl}-1H-benzimidazole-5-carboxamide] |  |  | 
3 |  | Cc1ccc(NC(=O)c2ccc(CN3CCN(C)CC3)cc2)cc1Nc1nccc(-c2cccnc2)n1 [Gleevec™, imatinib mesylate] | not affected | inhibited | induces apoptosis
